Test results from patent US12318434B2, “Alkaline phosphate-based oncology treatments” (Theriva Biologics, Inc., priority 2019, dated 2025).
Entries after “also recorded” stand apart in the source; their conditions may differ.

Tests used:
[1] = system: BALB/c mice inoculated with CT26 murine colorectal cancer cells; test: First set of experiments: stool consistency and weight change after 5-FU with or without IAP; format: in vivo
Source text: (§1) The study conducted included evaluation of the effects of administration of an IAP (“SYN-020” is synonymous with IAP and SYN BIAPII) along with a chemotherapeutic treatment with 5-fluorouracil (5-FU) in a murine model. […] Stool consistency was scored as the following: Score 0=Normal (no diarrhea); Score 2=Loose, formed stools; and Score 4=Diarrhea.
The first set of experiments included three groups of BALB/c mice inoculated with CT26 murine colorectal cancer cells into the right flank: (1) a no-treatment control group of 18 male mice (“untreated”); (2) a group of 18 male mice (“vehicle+5-FU”) that received an intraperitoneal (IP) QD (once daily) dose of 30 mg/kg of 5-FU for 5 consecutive days (days 0-4) and a vehicle was administered PO (orally) BID (twice a day) throughout the study (days −3 to +26); and (3) a group of 18 male mice (“SYN BIAPII+5-FU”) that received an IP QD dose of 30 mg/kg of 5-FU for 5 consecutive days (days 0-4) and an IAP (SYN-020) in a dose of 0.5 mg/kg, administered PO BID throughout the study (days −3 to +26).

[2] = system: BALB/c mice inoculated with CT26 murine colorectal cancer cells; test: Second set of experiments: mean daily body weight change after 5-FU with or without IAP; format: in vivo; conditions: 5-FU 30 mg/kg IP QD days 0-4
Procedure: (§2) The second set of experiments included four groups of BALB/c mice inoculated with CT26 murine colorectal cancer cells into the right flank: (1) a vehicle control group of 30 male mice (“vehicle”); (2) a group of 30 male mice that received a daily treatment dose of 100 U/dose, 0.5 mg/kg of SYN BIAP II alone (“SYN BIAP II”); (3) a group of 30 male mice (“vehicle+5-FU”) that received an IP QD dose of 30 mg/kg of 5-FU for 5 consecutive days (days 0-4) and vehicle treatment; and (4) a group of 30 male mice (“SYN BIAPII+5-FU”) that received an IP QD dose of 30 mg/kg of 5-FU for 5 consecutive days (days 0-4) and an IAP (SYN-020) in a dose of 100 U/dose, 0.5 mg/kg, administered PO BID throughout the study (days −3 to +26).
Cumulative differences in body weight change between treatment groups through 50% common group survival (Day (−3)-16) were assessed by calculating the area under the curve (AUC) for each animal using the trapezoidal transformation.

[3] = system: BALB/c mice inoculated with CT26 murine colorectal cancer cells; conditions: for Duration of Diarrhea (score = 4): Days < 4: animal-days with stool score < 4; for Duration of Diarrhea (score = 4): Days = 4: animal-days with stool score = 4 (diarrhea); for Duration of Diarrhea (score = 4): % Days = 4: percentage of total animal-days with diarrhea (score=4)
Source text: as §1, §2
Arrows indicate 5-FU administration days. […] The statistical significance of group differences in daily stool scores was assessed on each day by Mann-Whitney rank-sum analysis.
Table 1 below compares the duration of 5-FU-induced diarrhea by calculating the percentage of total animal-days with diarrhea (score=4). Groups were compared by chi-square test.

[4] = 5-FU 30 mg/kg IP QD days 0-4, vehicle or SYN-020 0.5 mg/kg PO BID days -3 to +26

| Molecule | effect of 5-FU administration on stools and weight ([1]; 5-FU 30 mg/kg IP QD days 0-4, all of the treated animals) | day by which loose stools/diarrhea and associated weight loss recovered [1, 4] [days] | day on which loose stools/diarrhea and associated weight loss peaked [1, 4] [days] | day by which animals regained lost weight [2] [days] | day on which chemotherapy-induced weight loss peaked [2] [days] | chemotherapy-induced weight loss at peak (percent change compared to body weight at Day 0) ([2]; Day 7) [%] | day by which incidence of loose stools generally resolved ([3]; 5-FU 30 mg/kg IP QD days 0-4) [days] | day on which incidence of loose stools or diarrhea was first observed ([3]; 5-FU 30 mg/kg IP QD days 0-4) [days] | Duration of Diarrhea (score = 4): Days < 4 [3] | Duration of Diarrhea (score = 4): Days = 4 [3] | animal-days with diarrhea compared to untreated animals ([3]; mouse, in vivo) | Duration of Diarrhea (score = 4): % Days = 4 [3] [%] | recovery from the loose stools/diarrhea symptoms and associated weight loss ([1]; SYN-020 0.5 mg/kg PO BID plus 5-FU, compared with vehicle+5-FU, p<0.03) | stool consistency throughout the course of the analysis ([3]; mouse, in vivo, 0.5 mg/kg) |
| --- | --- | --- | --- | --- | --- | --- | --- | --- | --- | --- | --- | --- | --- | --- |
| O=c1[nH]cc(F)c(=O)[nH]1 [vehicle + 5-FU, 5-fluorouracil] | caused loose stools/diarrhea, as well as associated weight loss; also recorded: caused loose stools/diarrhea, and associated weight loss | ≤ 9 | 6 | ~20 | 7 | ~−20 | ≤ 12 | 5 | 245 | 43 | statistically significant cumulative increase | 14.93 |  |  |
| SYN BIAPII: intestinal alkaline phosphatase; BIAP II with stop codon and no leader sequence (SYN-020) (SEQ ID NO: 41) (protein, Synthetic polymer.) LIPAEEENPAFWNRQAAQALDVAKKLQPIQTAAKNVILFLGDGMGVPTVTATRILKGQMNGKLGPETPLAMDQFPYVALSKTYNVDRQVPDSAGTATAYLCGVKGNYRTIGVSAAARYNQCNTTRGNEVTSVINRAKKAGKAVGVVTTTRVQHASPAGAYAHTVNRNWYSDADLPADAQKNGCQDIAAQLVYNMDIDVILGGGRMYMFPEGTPDPEYPDDASVNGVRKDKQNLVQEWQAKHQGAQYVWNRTALLQAADDSSVTHLMGLFEPADMKYNVQQDHTKDPTLAEMTEAALQVLSRNPRGFYLFVEGGRIDHGHHDGKAYMALTEAIMFDNAIAKANELTSELDTLILVTADHSHVFSFGGYTLRGTSIFGLAPGKALDSKSYTSILYGNGPGYALGGGSRPDVNGSTSEEPSYRQQAAVPLASETHGGEDVAVFARGPQAHLVHGVQEETFVAHIMAFAGCVEPYTDCNLPAPATATSIPD |  |  |  |  |  |  |  |  | 299 | 1 |  | 0.33 | significantly faster recovery | normal stool consistency |
